Results from patent US20260027083A1, “USE OF PPAR AGONIST FOR IMPROVEMENT OF ENERGY METABOLISM” (NOVMETAPHARMA CO., LTD., priority 2022, published 2026).

Columns and labels:
high-fat diet mice [1] = assay: Histology of liver tissues of high-fat diet mice (H&E, Sirius Red, Oil Red O, NAFLD activity score); type: in vivo, C57BL/6J mice; conditions: 5 mg/kg/day oral, 13 weeks HFD
Method: After the differentiation of 3T3-L1 in the 12-well plate was completed, the cells were fixed with 4% paraformaldehyde and stained with an Oil Red O solution, and then the stained samples were photographed under a microscope (Nikon Eclipse Ti-s). An Oil Red O dye of the samples was dissolved in isopropanol, detected by a spectrophotometer at 492 nm, and the lipid droplet size distribution was measured using ImageJ. OCT-embedded liver samples were stained according to the Roy Ellis protocol.
(§1) The care and use of experimental animals were carried out with the approval of the Institutional Animal Care and Use Committee of Pohang University of Science and Technology. C57BL/6J mice were purchased from Japan SLC, Inc. 50 four-week-old male C57/BL/6J mice were acclimated for 2 weeks. The mice were randomly divided and orally administered with vehicle or 5 mg/kg/day of D6 or WY14643 for 13 weeks (oral gavage), and obesity was induced by a 60% high-fat diet (#D12492, Research diets, NJ, USA). Body weights and food intakes were measured weekly from 6 weeks of age, and after 16 weeks of age, adipose tissue and muscle volumes were measured using a Trimodality imaging system.
Mouse tissues were fixed with 10% formalin solution (Sigma-Aldrich, St. Louis, MO, USA), and paraffin-embedded tissues were segmented and stained with hematoxylin and eosin (H&E) staining and Sirius Red staining (IHC world, Woodstock, USA).
Fibrosis and vesicular fat in liver tissue were observed using Sirius Red and Oil Red O staining methods. The NAFLD activation score was evaluated by referring to Kleiner, D. E. et al. Hepatology 41, 1313-1321, doi: 10.1002/hep.20701 (2005), etc., according to the NASH Clinical Research Network Scoring System.
To evaluate the effects on fatty liver-related symptoms after administration of the compound represented by Chemical Formula […], Sirius Red, and Oil Red O staining were performed on liver tissues of mice fed with a high-fat diet for 13 weeks.

PPARβ/δ = biological target: T1, PPARβ/δ (Homo sapiens, UniProt Q03181); assay: Gal4 trans-activated luciferase reporter assay, PPARβ/δ-LBD, HEK293; type: cell-based; conditions: HEK293, drug treatment 24 hours, FIG. 1
T1 construct: three types of pcDNA5-GAL4 and pGALRE-luc containing PPARα-LBD, PPARβ/δ-LBD, or PPARγ-LBD; GAL4 (fusion partner from vector pcDNA5-GAL4); expressed in transfected cells; host or cells: HEK293
T1 sequence (Q03181 211-439 limits assumed): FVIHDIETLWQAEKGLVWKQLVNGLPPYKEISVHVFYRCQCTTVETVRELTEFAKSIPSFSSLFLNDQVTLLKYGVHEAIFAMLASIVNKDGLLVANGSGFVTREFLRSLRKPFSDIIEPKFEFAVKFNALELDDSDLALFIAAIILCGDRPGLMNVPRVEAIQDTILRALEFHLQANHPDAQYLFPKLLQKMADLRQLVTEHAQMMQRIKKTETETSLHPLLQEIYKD
Method: (§2) A plasmid was transformed into E. coli (DE3, Rosetta) and transfected into HEK293 cells and used. Referring to known literatures such as Kanno, Y. & Inouye, Y. J Toxicol Sci 35, 515-525 (2010), Zhao, S. et al. J Nat Prod 79, 879-885 (2016), etc., luciferase assay was performed on three types of pcDNA5-GAL4 and pGALRE-luc containing PPARα-LBD, PPARβ/δ-LBD, or PPARγ-LBD. pProEX-PPAR and pET-28a were used for purification of His-tagged recombinant hPPAR-LBD protein.
(§3) A HEK293 cell line was cultured in Dulbecco's Modified Eagle Medium (DMEM) containing 10% Fetal Bovine Serum (FBS) and 1% penicillin-streptomycin (P/S). […]
(§4) Transfected HEK293 cells were treated with a drug and after 24 hours, the cells were collected, resuspended in a luciferase lysis buffer (Promega, Madison, Wisconsin, USA), and incubated on ice for 10 minutes. […] Next, Firefly Luciferase (Fluc) and Renilla Luciferase (Rluc) activities were measured using the Dual Luciferase Reporter Assay System (Promega, Madison, Wisconsin, USA). […]
(§5) To confirm whether a compound represented by Chemical Formula 1 was a PPAR agonist, Gal4 trans-activated luciferase assay was performed. Specifically, HEK293 cells were transfected with the Gal4-luciferase reporter systems of PPARα, PPARβ/δ, and PPARγ, respectively, harvested after drug treatment for 24 hours, and then analyzed by Dual-Luciferase assay. […]

PPARα = biological target: T2, PPARα (Homo sapiens, UniProt Q07869); assay: Gal4 trans-activated luciferase reporter assay, PPARα-LBD, HEK293; type: cell-based; conditions: HEK293, drug treatment 24 hours, FIG. 1
T2 construct: three types of pcDNA5-GAL4 and pGALRE-luc containing PPARα-LBD, PPARβ/δ-LBD, or PPARγ-LBD; GAL4 (fusion partner from vector pcDNA5-GAL4); expressed in transfected cells; host or cells: HEK293
T2 sequence (Q07869 239-466 limits assumed): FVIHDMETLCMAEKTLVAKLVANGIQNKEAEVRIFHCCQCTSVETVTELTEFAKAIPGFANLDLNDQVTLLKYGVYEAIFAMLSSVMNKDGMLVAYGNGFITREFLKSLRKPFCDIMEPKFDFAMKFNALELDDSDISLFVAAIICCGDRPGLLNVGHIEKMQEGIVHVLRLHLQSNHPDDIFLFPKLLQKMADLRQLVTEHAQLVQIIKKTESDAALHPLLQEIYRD
Method: as §2, §3, §4, §5

high-fat diet mice [2] = assay: Intraperitoneal glucose tolerance test (IP-GTT) in high-fat diet mice; type: in vivo, C57BL/6J mice; conditions: 5 mg/kg/day oral, 60% HFD, glucose 2 g/kg i.p. after 16 h fasting, FIG. 10
Method: as §1
A glucose tolerance test (GTT) was performed on mice after 16 weeks of age after fasting for 16 hours and intraperitoneal glucose administration at 2 g/kg body weight. The blood glucose levels were measured at 0, 15, 30, 45, 60, 90, and 120 minutes after tail vein injection.
To confirm a metabolic disease inhibitory effect of the compound represented by Chemical Formula 1 through animal experiments, mice were acclimated for 2 weeks, and then obesity was induced by feeding a 60% high fat diet (HFD) and orally administered with vehicle or 5 mg/kg/day of the compound represented by Chemical Formula 1 (D6) or WY14643 for 13 weeks. […]

relative luciferase activity (Fluc to Rluc) for PPARβ/δ (PPARβ/δ): dose-dependently increased
relative luciferase activity (Fluc to Rluc) for PPARα (PPARα): dose-dependently increased
Structure (SMILES): COc1ccc(-c2cc(=O)oc3c(C)c(OC(=O)[C@H](Cc4c[nH]c5ccccc45)NC(=O)OC(C)(C)C)ccc23)cc1 [Chemical Formula 1, [4-(4-methoxyphenyl)-8-methyl-2-oxochromen-7-yl] (2S)-3-(1H-indol-3-yl)-2-[(2-methylpropan-2-yl)oxycarbonylamino]propanoate]
level of lipid droplet accumulation in the liver (Oil Red O) (high-fat diet mice [1]; FIG. 18): reduced
NAFLD activity score (H&E images of liver tissue) (high-fat diet mice [1]; compared with WY14643 5 mg/kg/day, FIG. 17): better effect of improving the NAFLD disease index than the high-fat diet mice (HFD-WY) administered with WY14643
histological findings of fatty liver-related diseases in liver tissue (high-fat diet mice [1]; vs HFD-V, FIG. 16): reduced
glucose tolerance (IP-GTT) (high-fat diet mice [2]): improved
